What all share (experiment): relative viability (nuclei count vs DMSO), 5 days (fraction); higher = more cells survive
Compound in the experiment “QS11 + Lapatinib”: C1CC2=C(C1)C=C(C=C2)OC3=NC(=C4C(=N3)N(C=N4)CC5=CC=C(C=C5)C6=CC=CC=C6)N[C@@H](CC7=CC=CC=C7)CO [QS11] + CS(=O)(=O)CCNCc1ccc(-c2ccc3ncnc(Nc4ccc(OCc5cccc(F)c5)c(Cl)c4)c3c2)o1 [Lapatinib] (partner 2 µM)
The essentials:
(§1)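 Cells from lung cancer lines were seeded into 1536-well plates and, one day later, dosed by pin tool. Treatments were either a single drug or a fixed dose of an anchor drug with five library-drug doses (not always all listed) in √10 steps. After 5 days, nuclei were stained in a one-step fixation (final 0.05% Triton X-100, 1% formaldehyde, 1 ug/ml Hoechst) and counted on 4× images, and relative viability is the treated-to-vehicle nuclei ratio, as the median of duplicate plates.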

Compound in the experiment “AZ628 + Navitoclax”: CC1=C(C=C(C=C1)NC(=O)C2=CC(=CC=C2)C(C)(C)C#N)NC3=CC4=C(C=C3)N=CN(C4=O)C [AZ628] + CC1(C)CCC(c2ccc(Cl)cc2)=C(CN2CCN(c3ccc(C(=O)NS(=O)(=O)c4ccc(N[C@H](CCN5CCOCC5)CSc5ccccc5)c(S(=O)(=O)C(F)(F)F)c4)cc3)CC2)C1 [Navitoclax] (partner 0.5 µM)
The essentials: as §1

Compound in the experiment “AZ628 + Pictilisib”: CC1=C(C=C(C=C1)NC(=O)C2=CC(=CC=C2)C(C)(C)C#N)NC3=CC4=C(C=C3)N=CN(C4=O)C [AZ628] + CS(=O)(=O)N1CCN(Cc2cc3nc(-c4cccc5[nH]ncc45)nc(N4CCOCC4)c3s2)CC1 [Pictilisib] (partner 1 µM)
The essentials:
as §1

Compound in the experiment “AZ628 + Pemetrexed”: CC1=C(C=C(C=C1)NC(=O)C2=CC(=CC=C2)C(C)(C)C#N)NC3=CC4=C(C=C3)N=CN(C4=O)C [AZ628] + Nc1nc2[nH]cc(CCc3ccc(C(=O)N[C@@H](CCC(=O)O)C(=O)O)cc3)c2c(=O)[nH]1 [Pemetrexed] (partner 0.2 µM)
The essentials:
as §1

Turning to LCLC-97TM1, the relative viability in the experiment with QS11 + Lapatinib (first compound 0.08 µM) worked out at 0.484; with QS11 + Lapatinib (first compound 0.253 µM), 1.12; with QS11 + Lapatinib (first compound 0.8 µM) it was 0.96; with QS11 + Lapatinib (first compound 2.53 µM), 1.24; with QS11 + Lapatinib (first compound 8 µM), 0.673; in the experiment with AZ628 + Navitoclax (first compound 0.08 µM) it was 0.86. Besides, the relative viability in the experiment with AZ628 + Navitoclax (first compound 0.253 µM) was found to be 0.436; with AZ628 + Navitoclax (first compound 0.8 µM), 0.48; in the experiment with AZ628 + Navitoclax (first compound 2.53 µM), 0.437; with AZ628 + Navitoclax (first compound 8 µM), 0.255; with AZ628 + Pictilisib (first compound 0.08 µM), 0.201; with AZ628 + Pictilisib (first compound 0.253 µM), 0.183. Besides, the relative viability was 0.203 in the experiment with AZ628 + Pictilisib (first compound 0.8 µM); 0.141 with AZ628 + Pictilisib (first compound 2.53 µM); 0.12 with AZ628 + Pictilisib (first compound 8 µM); 0.246 with AZ628 + Pemetrexed (first compound 0.08 µM); 0.255 with AZ628 + Pemetrexed (first compound 0.253 µM); 0.238 with AZ628 + Pemetrexed (first compound 0.8 µM). The relative viability with AZ628 + Pemetrexed (first compound 2.53 µM) was 0.229; with AZ628 + Pemetrexed (first compound 8 µM), 0.121.

Source of the values: the supplement of paper PMC10307832.
